System: T1, Epac1-camps-PDE4A1
T1 construct: gene RAPGEF3
Conditions: read-out: pEC50 5.56 ± 0.08 (converted); 10 mM Tris, 10 mM MgCl2; apparent affinity; PDE catalytically impaired

Compound: Nc1ncnc2c1ncn2[C@@H]1O[C@@H]2COP(=O)(O)O[C@H]2[C@H]1O [cAMP]
- EC50: 2.7 µM

Reference: paper PMC5391016 (PLoS ONE, 2017)
